The text below walks through data of paper PMC5103170, “Total Synthesis, Structure, and Biological Activity of Adenosylrhodibalamin, the Non‐Natural Rhodium Homologue of Coenzyme B12” (Angewandte Chemie (International Ed. in English), 2016).

The assay concerns the target T1, 1,2-propanediol dehydratase (PduCDE) (Citrobacter freundii, UniProt P0DUM7+P0DUM8).
T1 construct: gene pduC; purified enzyme, alpha2beta2gamma2; construct details only in Supporting Information; with Propanediol dehydratase small subunit
T1 sequence (P0DUM7 1-554): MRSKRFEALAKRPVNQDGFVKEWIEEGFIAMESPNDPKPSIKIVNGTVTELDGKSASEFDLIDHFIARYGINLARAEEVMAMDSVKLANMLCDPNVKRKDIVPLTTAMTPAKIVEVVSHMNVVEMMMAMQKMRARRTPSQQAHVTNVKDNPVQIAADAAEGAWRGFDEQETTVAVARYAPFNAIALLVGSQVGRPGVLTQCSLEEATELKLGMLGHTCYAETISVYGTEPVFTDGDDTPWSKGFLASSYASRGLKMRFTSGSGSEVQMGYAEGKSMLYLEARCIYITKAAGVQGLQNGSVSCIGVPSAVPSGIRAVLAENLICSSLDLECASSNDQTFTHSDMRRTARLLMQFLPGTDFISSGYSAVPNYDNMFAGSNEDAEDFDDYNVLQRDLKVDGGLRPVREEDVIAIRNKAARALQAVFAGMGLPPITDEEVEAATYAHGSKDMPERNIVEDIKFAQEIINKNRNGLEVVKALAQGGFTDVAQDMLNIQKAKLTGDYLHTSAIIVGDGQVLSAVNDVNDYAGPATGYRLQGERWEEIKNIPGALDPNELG
T1 sequence (P0DUM8 1-224): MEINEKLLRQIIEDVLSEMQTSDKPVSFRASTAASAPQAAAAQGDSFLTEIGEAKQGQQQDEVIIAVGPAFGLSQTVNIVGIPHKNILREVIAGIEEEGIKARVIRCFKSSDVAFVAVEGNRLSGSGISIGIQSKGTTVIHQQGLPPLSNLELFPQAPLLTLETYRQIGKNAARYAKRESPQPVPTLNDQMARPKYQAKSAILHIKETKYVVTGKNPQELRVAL
T1 sequence (P0DUM9 1-172 partner): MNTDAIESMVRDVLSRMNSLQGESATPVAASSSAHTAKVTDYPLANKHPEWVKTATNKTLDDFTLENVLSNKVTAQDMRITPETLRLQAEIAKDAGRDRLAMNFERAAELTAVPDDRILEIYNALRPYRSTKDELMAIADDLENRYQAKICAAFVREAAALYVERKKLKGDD
In words: enzyme inhibition kinetics, non-linear regression. The assay is classed as biochemical. The note with it: competitive with AdoCbl.

As a reminder, the Ki is the dissociation constant of the complex between target and ligand, obtained from inhibition or displacement. Lower therefore signals a stronger hold on the target.

The substance AdoRbl showed a Ki (inactive as pseudo-coenzyme) of 6.9 µM. In turn, vitamin B12 returned a Ki of 2.5 µM.
